Data from patent publication EP0494819B1, “Phenylimidazolidines, their process for fabrication, their application as medicaments and the pharmaceutical compositions containing them” (ROUSSEL UCLAF, priority 1991, dated 1992).

Experiments:
récepteur androgène = biological target: T1, récepteur androgène (Rattus norvegicus, UniProt P15207); experiment: Affinity for the androgen receptor: relative binding affinity (ARL), displacement of tritiated testosterone in prostate cytosol of castrated rats; set-up: species or system rats mâles Sprague Dawley EOPS; conditions: testosterone = 100, ARL=100 (CH)/(CX); for ARL (affinité relative de liaison), Incubation : 30 minutes: incubation 30 minutes at 0°C; for ARL (affinité relative de liaison), Incubation : 24 heures: incubation 24 hours at 0°C
T1 construct: Des aliquotes du surnageant obtenu (=cytosol), sont incubées 30 minutes et 24 heures à 0°C; from tissue; host or cells: prostate cytosol (105 000 g supernatant) of castrated male Sprague Dawley rats
T1 sequence (P15207 1-902): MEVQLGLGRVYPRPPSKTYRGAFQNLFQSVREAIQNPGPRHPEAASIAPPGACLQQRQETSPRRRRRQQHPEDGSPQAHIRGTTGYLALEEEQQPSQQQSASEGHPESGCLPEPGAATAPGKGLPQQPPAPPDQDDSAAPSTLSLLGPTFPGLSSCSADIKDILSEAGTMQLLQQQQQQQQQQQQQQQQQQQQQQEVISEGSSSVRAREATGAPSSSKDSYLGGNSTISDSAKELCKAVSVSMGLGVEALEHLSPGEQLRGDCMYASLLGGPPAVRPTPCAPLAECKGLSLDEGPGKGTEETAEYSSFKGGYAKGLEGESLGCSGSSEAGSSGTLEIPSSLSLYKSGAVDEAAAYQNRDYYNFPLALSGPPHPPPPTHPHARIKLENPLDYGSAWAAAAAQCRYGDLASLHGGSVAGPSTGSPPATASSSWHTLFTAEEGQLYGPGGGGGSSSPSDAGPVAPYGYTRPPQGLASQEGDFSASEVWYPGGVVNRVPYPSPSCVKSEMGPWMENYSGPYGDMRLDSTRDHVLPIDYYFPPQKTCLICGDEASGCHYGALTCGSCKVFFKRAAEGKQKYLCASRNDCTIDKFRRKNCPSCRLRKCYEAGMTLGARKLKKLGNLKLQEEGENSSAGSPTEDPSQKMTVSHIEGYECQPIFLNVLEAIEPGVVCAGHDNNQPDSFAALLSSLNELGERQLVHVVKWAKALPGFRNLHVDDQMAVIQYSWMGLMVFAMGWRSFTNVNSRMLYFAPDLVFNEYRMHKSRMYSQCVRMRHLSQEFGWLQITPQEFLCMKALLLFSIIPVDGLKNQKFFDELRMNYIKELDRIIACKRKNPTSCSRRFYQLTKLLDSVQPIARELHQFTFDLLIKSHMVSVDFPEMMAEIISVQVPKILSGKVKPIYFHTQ
Procedure: 1) Etude de l'affinité des produits de l'invention pour le récepteur androgène
Des rats mâles Sprague Dawley EOPS de 180-200 g, castrés de 24 heures, sont sacrifiés, les prostates prélevées, pesées et homogénéisées à 0°C à l'aide d'un potter verre-verre, dans une solution tamponnée (Tris 10mM, saccharose 0,25M, PMSF (phénylméthanesulfonylfluoride) 0,1mM, Molybdate de sodium 20mM, HCl pH 7,4; auxquels on ajoute extemporanément 2mM de DTT (DL dithiothreitol), à raison de 1 g de tissu pour 8 ml de tampon.
L'homogénat est ensuite ultracentrifugé à 0°C, 45 minutes à 105 000 g.
Calcul de l'affinité relative de liaison (ARL).
On trace les 2 courbes suivantes : le pourcentage de l'hormone tritiée liée B/T en fonction du logarithme de la concentration de l'hormone de référence froide et B/T en fonction du logarithme de la concentration du produit froid testé. On détermine la droite d'équation I50=(B/Tmax + B/Tmin)/2. B/T max= % de l'hormone tritiée liée pour une incubation de cette hormone tritiée à la concentration (T). B/T min= % de l'hormone tritiée liée pour une incubation de cette hormone tritiée à la concentration (T) en présence d'un grand excès d'hormone froide (2500.10^-9M).
Les intersections de la droite I50 et des courbes, permettent d'évaluer les concentrations de l'hormone de référence froide (CH) et du produit froid testé (CX) qui inhibent de 50 % la liaison de l'hormone tritiée sur le récepteur.

[1] = system: ornithine décarboxylase rénale; experiment: Androgen or anti-androgen activity by assay of renal ornithine decarboxylase in castrated mice, oral treatment; format: in vivo, souris mâles SWISS; conditions: kidneys taken 16 h after treatment; for Antagonisme (PO): with testosterone propionate 3 mg/kg s.c.
Procedure: 2) Détermination de l'activité androgène ou anti-androgène des produits de l'invention à l'aide du dosage de l'ornithine de carboxylase.
16 heures après les traitements, les animaux sont sacrifiés, les reins prélevés, puis homogénéisés à 0°C , à l'aide d'un broyeur téflon-verre dans 10 volumes de tampon Tris-HCl 50 mM (pH 7,4) contenant 250 uM de phosphate de pyridoxal, 0,1 mM EDTA, et 5 mM de dithiothreitol. L'homogenat est ensuite centrifugé à 105000 g pendant 45 mn.
A 37°C, l'ornithine décarboxylase rénale transforme un mélange isotopique d'ornithine froide et d'ornithine tritiée en putrescine froide et putrescine tritiée.
La putrescine est ensuite recueillie sur des papiers sélectifs, échangeurs d'ions. Après séchage, l'excès d'ornithine tritiée et froide non transformée est éliminé, par 3 lavages d'ammoniaque 0,1 M. Les papiers sont séchés, puis la radioactivité est comptée après addition de scintillant Aqualite.
Les résultats sont exprimés en fmoles ([…]) de putrescine tritiée formée/heure/mg de protéines.

| Structure (SMILES) | ARL (affinité relative de liaison), Incubation : 30 minutes (récepteur androgène) | ARL (affinité relative de liaison), Incubation : 24 heures (récepteur androgène) | Antagonisme (PO) ([1]; 3 mg/kg PO) | Antagonisme (PO) ([1]; 0,1 mg/kg PO) | Antagonisme (PO) ([1]; 0,3 mg/kg PO) | Antagonisme (PO) ([1]; 1 mg/kg PO) | Antagonisme (PO) ([1]; 10 mg/kg PO) | Angonisme (PO) ([1]; 10 mg/kg PO, without testosterone propionate) |
| --- | --- | --- | --- | --- | --- | --- | --- | --- |
| CN1C(=O)N(c2ccc([N+](=O)[O-])c(C(F)(F)F)c2)C(=O)C1(C)C [Produit de l'exemple 1, 1-(4-nitro-3-(trifluorométhyl)phényl)-3,4,4-triméthyl-2,5-imidazolidinedione] | 27,5 | 3 |  |  |  |  |  |  |
| CCN1C(=O)N(c2ccc([N+](=O)[O-])c(C(F)(F)F)c2)C(=O)C1(C)C [Produit de l'exemple 2, 5,5-diméthyl-1-éthyl-3-(4-nitro-3-(trifluorométhyl)phényl)-2,4-imidazolidinedione] | 22 | 6 |  |  |  |  |  |  |
| CC(C)N1C(=O)N(c2ccc([N+](=O)[O-])c(C(F)(F)F)c2)C(=O)C1(C)C [Produit de l'exemple 4, 5,5-diméthyl-1-(1-méthyl éthyl)-3-(4-nitro-3-(trifluorométhyl)phényl)-2,4-imidazolidinedione] | 21 | 5 |  |  |  |  |  |  |
| CN1C(=S)N(c2ccc(C#N)c(C(F)(F)F)c2)C(=N)C1(C)C [Produit de l'exemple 11, 4-(5-imino-2-thioxo-3,4,4-triméthyl-1-imidazolidinyl)-2-(trifluorométhyl)-benzonitrile] | 28 | 8 | 3 mg/kg : 83% |  |  |  |  |  |
| CN1C(=S)N(c2ccc(C#N)c(C(F)(F)F)c2)C(=O)C1(C)C [Produit de l'exemple 12, 4-(5-oxo-2-thioxo-3,4,4-triméthyl-1-imidazolidinyl)-2-(trifluorométhyl)-benzonitrile] | 128 | 92 | 3 mg/kg : 94% | 0,1 mg/kg : 12% | 0,3 mg/kg : 36% | 1 mg/kg : 68% | 10 mg/kg : 99% | 10 mg/kg : 0% |
| CN1C(=S)N(c2ccc(C#N)c(C(F)(F)F)c2)C(=S)C1(C)C [Produit de l'exemple 13, 4-(2,5-dithioxo-3,4,4-triméthyl-1-imidazolidinyl)-2-(trifluorométhyl)-benzonitrile] | 31 | 39 |  |  |  |  |  |  |
| CC1(C)NC(=S)N(c2ccc(C#N)c(C(F)(F)F)c2)C1=N [Produit de l'exemple 14, 4-(4,4-diméthyl-5-imino-2-thioxo-1-imidazolidinyl)-2-(trifluorométhyl)-benzonitrile] | 27 | 7 | 3 mg/kg : 87% |  |  |  |  |  |
| CC1(C)NC(=S)N(c2ccc(C#N)c(C(F)(F)F)c2)C1=O [Produit de l'exemple 15, 4-(4,4-diméthyl-5-oxo-2-thioxo-1-imidazolidinyl)-2-(trifluorométhyl)-benzonitrile] | 69 | 24 |  |  | 0,3 mg/kg : 4% | 1 mg/kg : 82% |  |  |
